Values after ≈ are worked out from the molar mass of the structure shown. Read-outs that look alike come from different tables or passages of the source.
How the values were obtained:
[1] = system: human monocytic leukaemia THP-1 cells; assay type: cell-based; conditions: 30 µM highest concentration
Protocol: Human monocytic leukaemia THP-1 cells were obtained from the European Collection of Cell Cultures (ECACC, Salisbury, UK; Methods of characterization: DNA Fingerprinting (Multilocus probes) and isoenzyme analysis). Cell toxicity was determined using a Cytotoxicity Detection Kit^PLUS Lactate dehydrogenase (LDH) assay kit (Roche Diagnostics, Mannheim, Germany) according to the manufacturer’s instructions, as described previously.

[2] = Lipophilicity determination by HPLC (capacity factor k / calculated log k); assay type: physicochemical; conditions: experimental lipophilicity
Protocol: The lipophilicity determination was performed as described by Kapustikova et al..

[3] = system: methicillin-resistant S. aureus 63718; experiment: In vitro antibacterial evaluation (MIC), MRSA clinical isolate 63718; assay type: cell-based, Staphylococcus aureus; conditions: Staphylococcus aureus
Protocol: (§1) The synthesized compounds were evaluated for in vitro antibacterial activity against representatives of multidrug-resistant bacteria, clinical isolates of methicillin-resistant Staphylococcus aureus (MRSA) 63718, SA 630 and SA 3202 [16, 17] that were obtained from the National Institute of Public Health (Prague, Czech Republic). S. aureus ATCC 29213 was used as the reference and quality control strain. Ampicillin (Sigma, St. Louis, MO, USA) was used as the standard. The screening was performed as described previously.

[4] = system: Staphylococcus aureus ATCC 29213; experiment: In vitro antistaphylococcal susceptibility testing (MIC), reference strain; assay type: cell-based
Protocol: as §1

[5] = system: M. kansasii DSM 44162; experiment: In vitro antimycobacterial evaluation (MIC), M. kansasii; assay type: cell-based, Mycobacterium kansasii; conditions: M. kansasii DSM 44162, read-out: MIC MK
Protocol: (§2) The evaluation of the in vitro antimycobacterial activity of the compounds was performed against Mycobacterium tuberculosis H37Ra ATCC 25177 and M. kansasii DSM 44162 by means of the methodology described recently [e.g., 1,3,4–6,15,43]. Isoniazid (Sigma) was used as the standard.

[6] = system: methicillin-resistant S. aureus SA 3202; experiment: In vitro antibacterial evaluation (MIC), MRSA clinical isolate SA 3202; assay type: cell-based, Staphylococcus aureus; conditions: Staphylococcus aureus; clinical isolate MRSA SA 3202; read-out: MIC MRSA SA 3202
Protocol: as §1

[7] = system: Mycobacterium tuberculosis H37Ra ATCC 25177; experiment: In vitro antimycobacterial evaluation (MIC), M. tuberculosis; assay type: cell-based
Protocol: as §2

[8] = system: methicillin-resistant S. aureus SA 630; experiment: In vitro antibacterial evaluation (MIC), MRSA clinical isolate SA 630; assay type: cell-based, Staphylococcus aureus; conditions: Staphylococcus aureus; clinical isolate MRSA SA 630; read-out: MIC MRSA SA 630
Protocol: as §1

[9] = system: photosynthetic electron transport (PET) in spinach (Spinacia oleracea L.) chloroplasts; experiment: Inhibition of photosynthetic electron transport (PET) in spinach chloroplasts; assay type: biochemical
Protocol: The PET-inhibiting investigation using chloroplasts from spinach (Spinacia oleracea L.) was performed as described previously.

[10] = system: S. aureus ATCC 29213; conditions: Staphylococcus aureus, 24 h
[11] = system: M. tuberculosis ATCC 25177/H37Ra; experiment: MTT assay, viability of M. tuberculosis; assay type: cell-based, Mycobacterium tuberculosis; conditions: at tested MIC concentration; 7 days
Protocol: Compounds were prepared as previously stated and diluted in MH or MB broth for S. aureus to achieve the desired final concentrations 0.5 and 1 µg/mL, respectively, for S. aureus ATCC 29213, and 2 and 8 µg/mL, respectively, for M. tuberculosis ATCC 25177/H37Ra. M. tuberculosis ATCC 25177/H37Ra was suspended in ODAC supplemented MB at 1.0 McFarland and then diluted 1:10, using MB as a diluent. The diluted mycobacteria (50 µL) were added to each well containing the compound to be tested. S. aureus bacterial suspension in sterile distilled water at 0.5 McFarland was diluted 1:3. Inocula were added to each well by multi-inoculator. Diluted mycobacteria in broth free from inhibiting compounds were used as the growth control. All compounds were prepared in duplicate. […] The plates were read at 570 nm. The absorbance readings from the cells grown in the presence of the tested compounds were compared with uninhibited cell growth to determine the relative percent inhibition. The percent inhibition was determined through the MTT assay. The percent viability is calculated through the comparison of a measured value and that of the uninhibited control: % viability = OD570E/OD570P × 100, where OD570E is the reading from the compound-exposed cells, while OD570P is the reading from the uninhibited cells (positive control). Cytotoxic potential is determined by a percent viability of <70% [37, 38, 39, 52].

[12] = clinical isolate MRSA 63718, read-out: MIC MRSA 63718
[13] = one value for the three clinical MRSA strains (63718, SA 630, SA 3202), read-out: MIC against the MRSA strains
[14] = Mycobacterium kansasii, DSM44162

| Compound | Tox LD50 [1] [µM] | log k [2] | MIC [3, 12] [µM] | MIC [3, 13] [µM] | MIC ([4]; ATCC29213) [µM] | MIC [5, 14] [µM] | MIC [6] [µM] | MIC [7] [µM] | MIC [8] [µM] | IC50 [9] [µM] | viability of S. aureus ATCC 29213 (MTT) [10] [%] | viability of M. tuberculosis H37Ra (MTT) [11] [%] | MIC [4] [µM] | melting point [°C] | MIC [5] [µM] |
| --- | --- | --- | --- | --- | --- | --- | --- | --- | --- | --- | --- | --- | --- | --- | --- |
| Cc1ccc(C)c(NC(=O)c2ccc3ccccc3c2O)c1 [Compound 11, N-(2,5-dimethylphenyl)-1-hydroxynaphthalene-2-carboxamide] | >30 | 0.7155 | 27.5 (≈ 8.01 µg/mL) | 27.5 (≈ 8.01 µg/mL) | 13.7 (≈ 3.99 µg/mL) | 220 (≈ 64.1 µg/mL) | 27.5 (≈ 8.01 µg/mL) | 110 (≈ 32 µg/mL) | 27.5 (≈ 8.01 µg/mL) | 52.4 |  |  |  |  |  |
| Cc1cc(C)cc(NC(=O)c2ccc3ccccc3c2O)c1 [Compound 13, N-(3,5-dimethylphenyl)-1-hydroxynaphthalene-2-carboxamide] | >30 | 1.0030 | 6.85 (≈ 2 µg/mL) | 6.85 (≈ 2 µg/mL) | 3.43 (≈ 0.999 µg/mL) | 27.4 (≈ 7.98 µg/mL) | 6.85 (≈ 2 µg/mL) | 6.86 (≈ 2 µg/mL) | 6.85 (≈ 2 µg/mL) | 8.19 | 19 | 32 | 3.43 (≈ 0.999 µg/mL) |  |  |
| COc1ccc(Br)cc1NC(=O)c1ccc2ccccc2c1O [Compound 20, N-(5-Bromo-2-methoxyphenyl)-1-hydroxynaphthalene-2-carboxamide] |  | 1.0432 | 687 (≈ 256 µg/mL) |  | 687 (≈ 256 µg/mL) | 687 (≈ 256 µg/mL) | 687 (≈ 256 µg/mL) | 344 (≈ 128 µg/mL) | 687 (≈ 256 µg/mL) | 569 |  |  |  | 157 to 159 |  |
| COc1cc(F)cc(NC(=O)c2ccc3ccccc3c2O)c1 [Compound 23, N-(3-Fluoro-5-methoxyphenyl)-1-hydroxynaphthalene-2-carboxamide] | >30 | 0.7629 | 3.21 (≈ 0.999 µg/mL) | 3.21 (≈ 0.999 µg/mL) | 1.6 (≈ 0.498 µg/mL) | 12 (≈ 3.74 µg/mL) | 3.21 (≈ 0.999 µg/mL) | 25.6 (≈ 7.97 µg/mL) | 3.21 (≈ 0.999 µg/mL) | 10.1 | 49 |  | 1.60 (≈ 0.498 µg/mL) |  | 12.0 (≈ 3.74 µg/mL) |
